Assay results published in patent publication US20250368628A1, “METHODS AND COMPOUNDS FOR MODULATING INHERITED GENETIC DISEASES” (Design Therapeutics, Inc., priority 2022, published 2025).
Where two headings read alike, the source gives them in different places.

How the values were obtained:
[1] = tested on: Myotonic Dystrophy 1 affected patient fibroblasts (Coriel GM04602; 1600 CTG repeats); assay: DM1 foci reduction assay (EC50 assay; CAG10-Cy3 FISH, foci per nucleus); type: cell-based
How it was run: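 GM04602 DM1 patient fibroblasts (1600 CTG repeats) seeded 24 h, then treated 48 h at 37 °C with an 8-point 1:3 dose series from 3 μM. Cells PFA-fixed, ethanol-permeabilized and hybridized overnight with 5 nM CAG10-Cy3 probe, DAPI counterstained. Imaged at 20×, 4 fields per well, as average foci per nucleus.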

[2] = tested on: F35T cells; assay: Foci reduction in FECD (CAG10-Cy3 FISH, foci per nucleus); type: cell-based
How it was run: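 F35T cells, 5000 per well, were treated for 48 h at 37 °C, 5% CO2 in an 8-point dose response. Cells were then fixed in 4% PFA, permeabilized in 70% ethanol and hybridized overnight at 37 °C with a CAG10-Cy3 probe in 30% formamide/2×SSC. After DAPI staining, imaging gave foci per nucleus.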

[3] = Homo sapiens, Fibroblast; DM1 patient fibroblasts, 48 h treatment, foci per nucleus; read-out: DM1 EC50, 48 h
[4] = F35T cells, 48 h treatment, foci per nucleus; read-out: FECD EC50, 48 h
[5] = Homo sapiens, Fibroblast; DM1 patient fibroblasts, foci per nucleus, 48 h treatment; read-out: DM1 EC50, 48 h
[6] = F35T cells, foci per nucleus, 48 h treatment; read-out: FECD EC50, 48 h

Structure (SMILES) | EC50 [1, 3] [nM] | EC50 [2, 4] [nM] | EC50 [1, 5] [nM] | EC50 [2, 6] [nM]
Cn1cc(NC(=O)c2nc(NC(=O)CCNC(=O)c3cc(NC(=O)c4nccn4C)cn3C)cn2C)cc1C(=O)NCCCC(=O)Nc1cn(C)c(C(=O)NCCC(=O)Nc2cc(C(=O)Nc3cn(C)c(C(=O)NCCC(=O)NCCOCCOCCOCCN4CCN(C5CCN(c6ccc([N+](=O)[O-])cc6)CC5)CC4)n3)n(C)c2)n1 [Compound B-25] | 500 to 1000 | > 1000 | – | –
CCCNC(=O)CCNC(=O)c1nc(NC(=O)c2cc(NC(=O)CCNC(=O)c3nc(NC(=O)CCCNC(=O)c4cc(NC(=O)c5nc(NC(=O)CCNC(=O)c6cc(NC(=O)c7nccn7C)cn6C)cn5C)cn4CCN)cn3C)cn2C)cn1C [Compound B-265] | 100 to 500 | 100 to 500 | – | –
Cn1cc(NC(=O)c2nc(NC(=O)CCNC(=O)c3cc(NC(=O)c4nccn4C)cn3C)cn2C)cc1C(=O)NCCCC(=O)Nc1cn(C)c(C(=O)NCCC(=O)Nc2cc(C(=O)Nc3cn(C)c(C(=O)NCCCN4CCNCC4)n3)n(C)c2)n1 [Compound B-207] | 100 to 500 | > 1000 | – | –
CC(=O)NCCOCCn1cc(NC(=O)c2nc(NC(=O)CCNC(=O)c3cc(NC(=O)c4nccn4C)cn3C)cn2C)cc1C(=O)NCCCC(=O)Nc1cn(C)c(C(=O)NCCC(=O)Nc2cc(C(=O)Nc3cn(C)c(C(=O)NCCC(=O)N4CCC(C#CC#CC5CCNCC5)CC4)n3)n(C)c2)n1 [Compound B-300] | < 100 | < 100 | – | –
COCCOCCOCCOCCN(CCCCCn1cc(NC(=O)c2nc(NC(=O)CCNC(=O)c3cc(NC(=O)c4nccn4C)cn3C)cn2C)cc1C(=O)NCCCC(=O)Nc1cn(C)c(C(=O)NCCC(=O)Nc2cc(C(=O)Nc3cn(C)c(C(=O)NCCC(=O)NCCOCCOCCOCCN4CCC(C#CC#CC5CCNCC5)CC4)n3)n(C)c2)n1)CCOCCOCCOCCOC [Compound B-227] | > 1000 | > 1000 | – | –
Cn1cc(NC(=O)c2nc(NC(=O)CCNC(=O)c3cc(NC(=O)c4nccn4C)cn3C)cn2C)cc1C(=O)NCCCC(=O)Nc1cn(C)c(C(=O)NCCC(=O)Nc2cc(C(=O)Nc3cn(C)c(C(=O)NCCC(=O)NCCOCCOCCOCCN4CCC(C#CC#CC5CCNCC5)CC4)n3)n(C)c2)n1 [Compound B-18] | 100 to 500 | 100 to 500 | – | –
CC(=O)NCCCCCCn1cc(NC(=O)c2nc(NC(=O)CCNC(=O)c3cc(NC(=O)c4nccn4C)cn3C)cn2C)cc1C(=O)NCCCC(=O)Nc1cn(C)c(C(=O)NCCC(=O)Nc2cc(C(=O)Nc3cn(C)c(C(=O)NCCC(=O)N4CCC(C#CC#CC5CCN(C(C)=O)CC5)CC4)n3)n(C)c2)n1 [Compound B-293] | 500 to 1000 | 100 to 500 | – | –
CN(C)C(=NCCCNC(=O)CCNC(=O)c1nc(NC(=O)c2cc(NC(=O)CCNC(=O)c3nc(NC(=O)CCCNC(=O)c4cc(NC(=O)c5nc(NC(=O)CCNC(=O)c6cc(NC(=O)c7nccn7C)cn6C)cn5C)cn4C)cn3C)cn2C)cn1C)N(C)C [Compound B-72] | 500 to 1000 | > 1000 | – | –
C=C(NCCC(=O)Nc1cc(C(=O)Nc2cn(C)c(C(=O)NCCC(=O)NCCC)n2)n(C)c1)c1nc(NC(=O)CCCNC(=O)c2cc(NC(=O)c3nc(NC(=O)CCNC(=O)c4cc(NC(=O)c5nccn5C)cn4C)cn3C)cn2CCCNC(=O)C(C)(C)C)cn1C [Compound B-400] | < 100 | < 100 | – | –
CCCNC(=O)CCNC(=O)c1nc(NC(=O)c2cc(NC(=O)CCNC(=O)c3nc(NC(=O)CCCNC(=O)c4cc(NC(=O)c5nc(NC(=O)CCNC(=O)c6cc(NC(=O)c7nccn7C)cn6C)cn5C)cn4CCCOC(=O)c4ccccc4)cn3C)cn2C)cn1C [Compound B-432] | – | – | < 100 | < 100
CCCNC(=O)CCNC(=O)c1nc(NC(=O)c2cc(NC(=O)CCNC(=O)c3nc(NC(=O)[C@H](N)CCNC(=O)c4cc(NC(=O)c5nc(NC(=O)CCNC(=O)c6cc(NC(=O)c7nccn7C)cn6C)cn5C)cn4C)cn3C)cn2C)cn1C [Compound B-3, N-(5-{[(3R)-3-amino-3-[(1-methyl-2-{[2-({1-methyl-5-[(1-methyl-2-{[2-(propylcarbamoyl)ethyl]carbamoyl}imidazol-4-yl)carbamoyl]pyrrol-3-yl}carbamoyl)ethyl]carbamoyl}imidazol-4-yl)carbamoyl]propyl]carbamoyl}-1-methylpyrrol-3-yl)-1-methyl-4-(3-{[1-methyl-4-(1-methylimidazole-2-amido)pyrrol-2-yl]formamido}propanamido)imidazole-2-carboxamide] | < 100 | 500 to 1000 | – | –
CN1CCC(C#CC#CC2CCN(CCOCCOCCOCCNC(=O)CCNC(=O)c3nc(NC(=O)c4cc(NC(=O)CCNC(=O)c5nc(NC(=O)CCCNC(=O)c6cc(NC(=O)c7nc(NC(=O)CCNC(=O)c8cc(NC(=O)c9nccn9C)cn8C)cn7C)cn6C)cn5C)cn4C)cn3C)CC2)CC1 [Compound B-125] | 100 to 500 | 100 to 500 | – | –
CCCNC(=O)CCNC(=O)c1nc(NC(=O)c2cc(NC(=O)CCNC(=O)c3nc(NC(=O)CCCNC(=O)c4cc(NC(=O)c5nc(NC(=O)CCNC(=O)c6cc(NC(=O)c7nccn7C)cn6C)cn5C)cn4CCCCC(=O)N(CCOCCOCCOCCOC)CCOCCOCCOCCOC)cn3C)cn2C)cn1C [Compound B-163] | 100 to 500 | 100 to 500 | – | –
Cn1cc(NC(=O)c2nccn2C)cc1C(=O)NCCC(=O)Nc1cn(C)c(C(=O)Nc2cc(C(=O)NCCCC(=O)Nc3cn(C)c(C(=O)NCCC(=O)Nc4cc(C(=O)Nc5cn(C)c(C(=O)NCCC(=O)N6CCC(C#CC#CC7CCNCC7)CC6)n5)n(C)c4)n3)n(CCCCN)c2)n1 [Compound B-281] | < 100 | < 100 | – | –
CCCCn1cc(NC(=O)c2nc(NC(=O)CCNC(=O)c3cc(NC(=O)c4nccn4C)cn3C)cn2C)cc1C(=O)NCCCC(=O)Nc1cn(C)c(C(=O)NCCC(=O)Nc2cc(C(=O)Nc3cn(C)c(C(=O)NCCC(=O)N4CCN(C)CC4)n3)n(C)c2)n1 [Compound B-426] | – | – | 100 to 500 | 100 to 500
COCCOCCOCCOCCN(CCCCCn1cc(NC(=O)c2nc(NC(=O)CCNC(=O)c3cc(NC(=O)c4nccn4C)cn3C)cn2C)cc1C(=O)NCCCC(=O)Nc1cn(C)c(C(=O)NCCC(=O)Nc2cc(C(=O)Nc3cn(C)c(C(=O)NCCC(=O)N4CCC(C#CC#CC5CCNCC5)CC4)n3)n(C)c2)n1)CCOCCOCCOCCOC [Compound B-258] | 500 to 1000 | 500 to 1000 | – | –
Cn1cc(NC(=O)c2nc(NC(=O)CCNC(=O)c3cc(NC(=O)c4nccn4C)cn3C)cn2C)cc1C(=O)NCCCC(=O)Nc1cn(C)c(C(=O)NCCC(=O)Nc2cc(C(=O)Nc3cn(C)c(C(=O)NCC#Cc4ccccc4)n3)n(C)c2)n1 [Compound B-245] | < 100 | < 100 | – | –
Cn1cc(NC(=O)c2nc(NC(=O)CCNC(=O)c3cc(NC(=O)c4nccn4C)cn3C)cn2C)cc1C(=O)NCCCC(=O)Nc1cn(C)c(C(=O)NCCC(=O)Nc2cc(C(=O)Nc3cn(C)c(C(=O)NCCC(=O)N4CCC(N5CCN(C(=O)OC(C)(C)C)CC5)CC4)n3)n(C)c2)n1 [Compound B-30] | 100 to 500 | < 100 | – | –
CN(CCCN)CCCNC(=O)c1cc(NC(=O)CCNC(=O)c2nc(NC(=O)CCCNC(=O)c3cc(NC(=O)c4nc(NC(=O)CCNC(=O)c5cc(NC(=O)c6nccn6C)cn5C)cn4C)cn3CCCCCCN=[N+]=[N-])cn2C)cn1C [Compound B-358] | > 1000 | > 1000 | – | –
CCCNC(=O)CCNC(=O)c1nc(NC(=O)c2cc(NC(=O)CCNC(=O)c3nc(NC(=O)CCCNC(=O)c4cc(NC(=O)c5nc(NC(=O)CCNC(=O)c6cc(NC(=O)c7nc(NC=O)cn7C)cn6C)cn5C)cn4C)cn3C)cn2C)cn1C [Compound B-324] | 100 to 500 | < 100 | – | –
CCOC(=O)CCNC(=O)c1nc(NC(=O)c2cc(NC(=O)CCNC(=O)c3nc(NC(=O)CCCNC(=O)c4cc(NC(=O)c5nc(NC(=O)CCNC(=O)c6cc(NC(=O)c7nccn7C)cn6C)cn5C)c[nH]4)cn3C)cn2C)cn1C [Compound B-395] | 500 to 1000 | 100 to 500 | – | –
CC(Nc1cc(C(=O)NCCC(=O)Nc2cn(C)c(C(=O)Nc3cc(C(=O)NCCCC(=O)Nc4cn(C)c(C(=O)Nc5cc(C(=O)NCCC(=O)Nc6cn(C)c(C(=O)NCCC(=O)NCCCCN=[N+]=[N-])n6)n(C)c5)n4)n(C)c3)n2)n(C)c1)c1nccn1C (stereo not shown) [Compound B-75] | 500 to 1000 | > 1000 | – | –
CCCCn1cc(NC(=O)c2nc(NC(=O)CCNC(=O)c3cc(NC(=O)c4nccn4C)cn3C)cn2C)cc1C(=O)NC[C@H](N)CC(=O)Nc1cn(C)c(C(=O)NCCC(=O)Nc2cc(C(=O)Nc3cn(C)c(C(=O)NCCCCN(C)C)n3)n(C)c2)n1 [Compound B-423] | – | – | 100 to 500 | > 1000
CN1CCN(C(=O)CCNC(=O)c2nc(NC(=O)c3cc(NC(=O)CCNC(=O)c4nc(NC(=O)CCCNC(=O)c5cc(NC(=O)c6nc(NC(=O)CCNC(=O)c7cc(NC(=O)c8nccn8C)cn7C)cn6C)cn5CCCCO)cn4C)cn3C)cn2C)CC1 [Compound B-427] | – | – | 100 to 500 | < 100
CCN(CC)CCCC[C@H](NC(=O)c1ccc(C(C)(C)C)cc1)C(=O)NCCOCCOCCOCCOCCOCCNC(=O)CCNC(=O)c1nc(NC(=O)c2cc(NC(=O)CCNC(=O)c3nc(NC(=O)CCCNC(=O)c4cc(NC(=O)c5nc(NC(=O)CCNC(=O)c6cc(NC(=O)c7nccn7C)cn6C)cn5C)cn4C)cn3C)cn2C)cn1C [Compound B-92] | 100 to 500 | 500 to 1000 | – | –
CN(CCCNC(=O)c1cccc(C(=O)O)c1)CCCNC(=O)c1nc(NC(=O)c2cc(NC(=O)CCNC(=O)c3nc(NC(=O)CCCNC(=O)c4cc(NC(=O)c5nc(NC(=O)CCNC(=O)c6cc(NC(=O)c7nccn7C)cn6C)cn5C)cn4CCCCCCN=[N+]=[N-])cn3C)cn2C)cn1C [Compound B-233] | 100 to 500 | 100 to 500 | – | –
